In ChEMBL document CHEMBL4321836, “Discovery of BAY-298 and BAY-899: Tetrahydro-1,6-naphthyridine-Based, Potent, and Selective Antagonists of the Luteinizing Hormone Receptor Which Reduce Sex Hormone Levels in Vivo” (J Med Chem, 2019):
Values after ≈ are worked out from the molar mass of the structure shown. Active and inactive are the calls of the source. The rule behind the calls is not given here.

Columns and labels:
[1] = biological target: T1, Prostaglandin E2 receptor EP3 subtype (Homo sapiens) (UniProt P43115); experiment: Agonist activity at human EP3 receptor expressed in […] cells at 10 uM by spectrophotometric method relative to control; format: cell-based
T1 sequence (whole entry): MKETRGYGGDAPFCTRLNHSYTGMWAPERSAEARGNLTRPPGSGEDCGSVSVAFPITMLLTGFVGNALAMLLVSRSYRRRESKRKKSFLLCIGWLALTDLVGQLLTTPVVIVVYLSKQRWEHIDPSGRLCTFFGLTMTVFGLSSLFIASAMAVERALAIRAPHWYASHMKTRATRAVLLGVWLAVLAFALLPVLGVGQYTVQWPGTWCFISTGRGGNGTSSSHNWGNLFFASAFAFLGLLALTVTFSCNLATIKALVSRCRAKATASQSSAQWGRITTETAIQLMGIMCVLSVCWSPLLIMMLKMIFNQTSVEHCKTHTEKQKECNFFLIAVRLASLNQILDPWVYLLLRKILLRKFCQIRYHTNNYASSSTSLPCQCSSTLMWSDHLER

Cytochrome P450 3A4 = Cytochrome P450 3A4 (Homo sapiens, UniProt P08684); experiment: Inhibition of CYP3A4 in human liver microsomes using midazolam as substrate treated prior to substrate addition by LC-MS/MS analysis; format: ADME
[2] = biological target: Kappa-type opioid receptor (Homo sapiens) (UniProt P41145); experiment: Agonist activity at human kappa opioid receptor at 10 uM by Spectrophotometric method relative to control
[3] = Apparent permeability across apical to basolateral side in human Caco2 cells at 2 uM after 2 hrs by LC-MS/MS analysis; format: ADME, cell-based; conditions: Caco-2
[4] = biological target: Motilin receptor (Homo sapiens) (UniProt O43193); experiment: Agonist activity at human Motilin receptor expressed in CHO-K1 cells at 10 uM by fluorimetric method relative to control; format: cell-based
[5] = biological target: Melanocortin receptor 4 (Homo sapiens) (UniProt P32245); experiment: Agonist activity at human MC4 receptor expressed in CHO-K1 cells at 10 uM after 30 mins by HTRF assay relative to control; format: cell-based
[6] = Dose normalized Cmax in Wistar rat at 0.5 mg/kg, iv after 2 to 72 hrs by LC-MS/MS analysis; format: ADME, organism-based; conditions: in vivo
[7] = biological target: Mu-type opioid receptor (Homo sapiens) (UniProt P35372); experiment: Agonist activity at human mu opioid receptor expressed in CHO-K1 cells at 10 uM after 10 mins by HTRF assay relative to control; format: cell-based
Cytochrome P450 1A2 = Cytochrome P450 1A2 (Homo sapiens, UniProt P05177); experiment: Inhibition of CYP1A2 in human liver microsomes using phenacetin as substrate by LC-MS/MS analysis; format: ADME
[8] = biological target: D(1A) dopamine receptor (Homo sapiens) (UniProt P21728); experiment: Antagonist activity at human D1 receptor expressed in CHO-K1 cells at 10 uM after 30 mins HTRF assay relative to control; format: cell-based; design: scale not given: the % may be the effect or the level left
[9] = biological target: D(2) dopamine receptor (Homo sapiens) (UniProt P14416); experiment: Agonist activity at human Dopamine D2L receptor expressed in CHO-K1 cells at 10 uM by Fluorimetric analysis relative to control; format: cell-based
[10] = Toxicity in female rat assessed as effect on animal activity; conditions: in vivo
[11] = biological target: Somatostatin receptor type 4 (Homo sapiens) (UniProt P31391); experiment: Agonist activity at human sst4 expressed in CHO-K1 cells at 10 uM after 10 mins by HTRF assay relative to control; format: cell-based
[12] = biological target: Lutropin-choriogonadotropic hormone receptor (Homo sapiens, UniProt P22888); experiment: Antagonist activity at human luteinizing hormone receptor assessed as reduction in agonist-induced cAMP production preincubated for 20 mins followed by agonist solution addition after 60 mins by cell based TR-FRET assay; format: functional
Cytochrome P450 2C9 = Cytochrome P450 2C9 (Homo sapiens, UniProt P11712); experiment: Inhibition of CYP2C9 in human liver microsomes using diclofenac as substrate by LC-MS/MS analysis; format: ADME
Rattus norvegicus [13] = experiment: Downregulation of estradiol level in proestrus staged-female rat serum at 12.5 mg/kg, po administered once daily for 8 days and measured by radioimmunoassay method (reference value: 144 pmol/L); format: functional
[14] = Tmax in Wistar rat at 2 mg/kg, po after 8 to 72 hrs by LC-MS/MS analysis; format: ADME, organism-based; conditions: in vivo
Rattus norvegicus [15] = experiment: Induction of long-term effect on estrus cycle in 4 day cycle of normally cycling female rat assessed as changes in vaginal smears at 12.5 mg/kg, po administered once daily for 8 days; format: functional, organism-based
Cytochrome P450 2D6 = Cytochrome P450 2D6 (Homo sapiens, UniProt P10635); experiment: Inhibition of CYP2D6 in human liver microsomes using dextromethorphan as substrate by LC-MS/MS analysis; format: ADME
[16] = Volume of distribution at steady state in Wistar rat at 0.5 mg/kg, iv after 2 to 72 hrs by LC-MS/MS analysis; format: ADME, organism-based; conditions: in vivo, read-out: Vdss
[17] = biological target: Muscarinic acetylcholine receptor M4 (Homo sapiens) (UniProt P08173); experiment: Agonist activity at human muscarinic M4 receptor expressed in CHO-K1 cells at 10 uM after 10 mins by HTRF method relative to control; format: cell-based
[18] = Toxicity in female rat assessed as reduction in body weight; conditions: in vivo
[19] = Clearance in Wistar rat at 0.5 mg/kg, iv after 2 to 72 hrs by LC-MS/MS analysis; format: ADME, organism-based; conditions: in vivo
[20] = biological target: Histamine H1 receptor (Homo sapiens) (UniProt P35367); experiment: Agonist activity at human histamine H1 receptor expressed in HEK293 cells at 10 uM by Fluorimetric method relative to control; format: cell-based
[21] = Aqueous solubility of the compound at pH 6.5 incubated for 24 hrs under shaking condition by HPLC-MS/MS analysis; format: physicochemical; conditions: buffer
[22] = biological target: 5-hydroxytryptamine receptor 2B (Homo sapiens) (UniProt P41595); experiment: Antagonist activity at human 5-HT2B receptor expressed in CHO-K1 cells at 10 uM after 30 mins by HTRF assay relative to control; format: cell-based; design: scale not given: the % may be the effect or the level left
[23] = biological target: Voltage-gated inwardly rectifying potassium channel KCNH2 (Homo sapiens, UniProt Q12809); experiment: Inhibition of human ERG expressed in HEK293 cells at holding potential -80 mV by whole-cell voltage-clamp method; format: cell-based
[24] = biological target: Melanocortin receptor 4 (Homo sapiens) (UniProt P32245); experiment: Antagonist activity at human MC4 receptor expressed in CHO-K1 cells at 10 uM after 30 mins by HTRF assay relative to control; format: cell-based; design: scale not given: the % may be the effect or the level left
[25] = biological target: Cannabinoid receptor 1 (Homo sapiens) (UniProt P21554); experiment: Agonist activity at human CB1 receptor expressed in CHO-K1 cells at 10 uM after 20 mins HTRF assay relative to control; format: cell-based
[26] = biological target: Substance-P receptor (Homo sapiens) (UniProt P25103); experiment: Agonist activity at human NK1 receptor expressed in U373 MG cells at 10 uM by fluorimetric method relative to control; format: cell-based; conditions: U-373MG ATCC
[27] = Maximum oral bioavailability in Han Wistar rat hepatocytes at 1 uM measured after 2 to 90 mins by LC-MS/MS analysis; format: ADME, Hepatocyte; conditions: read-out: Fmax
[28] = Dose normalized AUC in Wistar rat at 2 mg/kg, po after 8 to 72 hrs by LC-MS/MS analysis; format: ADME, organism-based; conditions: in vivo
[29] = Half life in Wistar rat at 2 mg/kg, po after 8 to 72 hrs by LC-MS/MS analysis; format: ADME, organism-based; conditions: in vivo

Melanocortin receptor 4 (Homo sapiens), sequence (P32245 whole entry): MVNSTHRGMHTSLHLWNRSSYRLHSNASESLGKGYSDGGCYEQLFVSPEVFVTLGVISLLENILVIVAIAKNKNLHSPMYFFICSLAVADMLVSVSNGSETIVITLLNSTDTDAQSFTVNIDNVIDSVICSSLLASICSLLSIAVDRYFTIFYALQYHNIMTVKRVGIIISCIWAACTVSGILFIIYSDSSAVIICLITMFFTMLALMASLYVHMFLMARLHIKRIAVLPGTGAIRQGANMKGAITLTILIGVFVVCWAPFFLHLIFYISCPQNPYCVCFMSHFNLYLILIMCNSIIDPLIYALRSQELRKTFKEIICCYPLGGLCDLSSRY
D(1A) dopamine receptor (Homo sapiens), sequence (P21728 whole entry): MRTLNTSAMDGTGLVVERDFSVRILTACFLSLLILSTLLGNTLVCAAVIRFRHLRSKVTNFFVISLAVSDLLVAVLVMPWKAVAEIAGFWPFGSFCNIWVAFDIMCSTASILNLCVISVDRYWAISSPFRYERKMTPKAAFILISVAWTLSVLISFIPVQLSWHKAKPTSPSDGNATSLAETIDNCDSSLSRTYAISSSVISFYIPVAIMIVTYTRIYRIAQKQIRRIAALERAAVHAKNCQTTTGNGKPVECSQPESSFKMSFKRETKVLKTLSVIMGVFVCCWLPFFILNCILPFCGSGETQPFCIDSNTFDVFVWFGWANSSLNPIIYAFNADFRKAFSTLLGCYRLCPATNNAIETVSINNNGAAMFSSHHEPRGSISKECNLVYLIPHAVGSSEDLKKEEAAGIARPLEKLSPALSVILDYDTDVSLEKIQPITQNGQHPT
Voltage-gated inwardly rectifying potassium channel KCNH2, sequence (Q12809 whole entry): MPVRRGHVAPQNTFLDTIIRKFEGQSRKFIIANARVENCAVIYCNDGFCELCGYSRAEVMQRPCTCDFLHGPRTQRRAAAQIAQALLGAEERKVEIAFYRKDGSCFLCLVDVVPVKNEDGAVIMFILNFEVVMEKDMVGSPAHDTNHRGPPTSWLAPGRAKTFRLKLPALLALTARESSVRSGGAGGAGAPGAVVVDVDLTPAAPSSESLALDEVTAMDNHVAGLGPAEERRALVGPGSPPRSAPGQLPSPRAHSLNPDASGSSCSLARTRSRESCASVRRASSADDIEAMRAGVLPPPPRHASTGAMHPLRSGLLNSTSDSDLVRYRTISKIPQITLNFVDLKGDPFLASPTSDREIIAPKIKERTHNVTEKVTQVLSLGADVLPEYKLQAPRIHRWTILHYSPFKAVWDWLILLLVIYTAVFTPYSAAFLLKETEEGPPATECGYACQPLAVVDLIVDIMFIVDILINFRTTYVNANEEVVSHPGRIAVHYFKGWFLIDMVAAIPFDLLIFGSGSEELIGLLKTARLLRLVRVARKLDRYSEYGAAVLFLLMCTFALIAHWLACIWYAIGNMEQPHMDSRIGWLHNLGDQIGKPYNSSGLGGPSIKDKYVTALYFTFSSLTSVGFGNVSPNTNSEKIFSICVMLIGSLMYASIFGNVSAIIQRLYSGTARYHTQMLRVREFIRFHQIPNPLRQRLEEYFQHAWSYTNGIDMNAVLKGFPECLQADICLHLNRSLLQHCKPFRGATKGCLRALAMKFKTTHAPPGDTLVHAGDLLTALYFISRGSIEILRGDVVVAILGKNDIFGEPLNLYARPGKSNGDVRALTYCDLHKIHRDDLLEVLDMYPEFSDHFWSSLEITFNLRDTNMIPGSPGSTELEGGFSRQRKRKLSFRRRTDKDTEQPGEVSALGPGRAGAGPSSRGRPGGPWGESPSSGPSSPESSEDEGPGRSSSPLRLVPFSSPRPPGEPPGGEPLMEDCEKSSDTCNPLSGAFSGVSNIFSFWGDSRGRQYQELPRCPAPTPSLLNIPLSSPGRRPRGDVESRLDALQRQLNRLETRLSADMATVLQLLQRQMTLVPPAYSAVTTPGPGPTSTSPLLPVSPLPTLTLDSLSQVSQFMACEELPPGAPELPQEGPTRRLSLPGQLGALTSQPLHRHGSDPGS
Cytochrome P450 2D6, sequence (P10635 whole entry): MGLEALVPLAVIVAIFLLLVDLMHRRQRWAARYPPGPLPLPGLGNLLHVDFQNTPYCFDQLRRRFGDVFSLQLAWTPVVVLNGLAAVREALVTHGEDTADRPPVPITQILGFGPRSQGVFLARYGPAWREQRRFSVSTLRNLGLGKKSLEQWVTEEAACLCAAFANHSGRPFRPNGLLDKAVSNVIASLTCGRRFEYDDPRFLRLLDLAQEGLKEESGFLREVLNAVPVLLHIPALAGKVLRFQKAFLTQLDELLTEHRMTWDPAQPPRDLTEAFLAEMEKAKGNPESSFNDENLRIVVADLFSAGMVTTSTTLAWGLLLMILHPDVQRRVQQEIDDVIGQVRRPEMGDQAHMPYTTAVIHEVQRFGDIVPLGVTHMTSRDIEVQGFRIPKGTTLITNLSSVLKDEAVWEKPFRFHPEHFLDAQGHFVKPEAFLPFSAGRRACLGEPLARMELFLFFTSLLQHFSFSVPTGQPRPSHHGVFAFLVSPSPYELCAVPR
Cytochrome P450 3A4, sequence (P08684 whole entry): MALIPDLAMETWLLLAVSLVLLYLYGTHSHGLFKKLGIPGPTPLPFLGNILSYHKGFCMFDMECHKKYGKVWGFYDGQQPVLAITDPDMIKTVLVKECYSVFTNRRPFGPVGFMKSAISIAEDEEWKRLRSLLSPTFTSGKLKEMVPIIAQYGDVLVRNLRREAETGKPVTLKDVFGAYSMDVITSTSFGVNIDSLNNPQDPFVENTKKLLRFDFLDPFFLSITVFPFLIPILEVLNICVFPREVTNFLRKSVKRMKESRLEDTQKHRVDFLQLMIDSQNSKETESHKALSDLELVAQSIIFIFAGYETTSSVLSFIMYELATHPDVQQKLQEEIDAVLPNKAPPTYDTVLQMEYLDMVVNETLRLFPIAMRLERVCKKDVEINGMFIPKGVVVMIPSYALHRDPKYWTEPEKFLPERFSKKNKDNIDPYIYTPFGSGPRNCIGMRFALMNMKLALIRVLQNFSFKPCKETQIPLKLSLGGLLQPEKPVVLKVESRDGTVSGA
Cannabinoid receptor 1 (Homo sapiens), sequence (P21554 whole entry): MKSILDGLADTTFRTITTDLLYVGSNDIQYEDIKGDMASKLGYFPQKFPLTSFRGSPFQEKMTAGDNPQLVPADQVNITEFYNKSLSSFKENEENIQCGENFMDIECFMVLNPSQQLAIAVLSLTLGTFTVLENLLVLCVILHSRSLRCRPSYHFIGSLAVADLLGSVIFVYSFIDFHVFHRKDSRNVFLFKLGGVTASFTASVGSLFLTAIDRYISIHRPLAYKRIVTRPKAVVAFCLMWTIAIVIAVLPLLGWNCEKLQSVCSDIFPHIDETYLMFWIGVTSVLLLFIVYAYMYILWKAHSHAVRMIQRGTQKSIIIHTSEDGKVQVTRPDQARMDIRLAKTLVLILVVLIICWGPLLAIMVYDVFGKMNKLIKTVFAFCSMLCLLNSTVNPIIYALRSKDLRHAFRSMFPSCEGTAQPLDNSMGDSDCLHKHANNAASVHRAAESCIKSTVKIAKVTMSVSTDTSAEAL
D(2) dopamine receptor (Homo sapiens), sequence (P14416 whole entry): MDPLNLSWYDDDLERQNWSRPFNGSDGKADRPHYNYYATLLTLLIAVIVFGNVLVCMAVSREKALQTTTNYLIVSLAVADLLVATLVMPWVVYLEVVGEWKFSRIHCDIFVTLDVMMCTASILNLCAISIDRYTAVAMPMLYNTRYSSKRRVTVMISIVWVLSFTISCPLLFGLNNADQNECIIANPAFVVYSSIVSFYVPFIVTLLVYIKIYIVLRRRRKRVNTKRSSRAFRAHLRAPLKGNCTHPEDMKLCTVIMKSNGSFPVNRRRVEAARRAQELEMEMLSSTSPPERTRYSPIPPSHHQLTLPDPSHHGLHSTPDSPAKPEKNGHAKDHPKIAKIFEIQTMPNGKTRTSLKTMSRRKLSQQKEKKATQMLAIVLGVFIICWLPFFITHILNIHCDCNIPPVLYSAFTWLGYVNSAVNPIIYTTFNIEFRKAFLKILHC
5-hydroxytryptamine receptor 2B (Homo sapiens), sequence (P41595 whole entry): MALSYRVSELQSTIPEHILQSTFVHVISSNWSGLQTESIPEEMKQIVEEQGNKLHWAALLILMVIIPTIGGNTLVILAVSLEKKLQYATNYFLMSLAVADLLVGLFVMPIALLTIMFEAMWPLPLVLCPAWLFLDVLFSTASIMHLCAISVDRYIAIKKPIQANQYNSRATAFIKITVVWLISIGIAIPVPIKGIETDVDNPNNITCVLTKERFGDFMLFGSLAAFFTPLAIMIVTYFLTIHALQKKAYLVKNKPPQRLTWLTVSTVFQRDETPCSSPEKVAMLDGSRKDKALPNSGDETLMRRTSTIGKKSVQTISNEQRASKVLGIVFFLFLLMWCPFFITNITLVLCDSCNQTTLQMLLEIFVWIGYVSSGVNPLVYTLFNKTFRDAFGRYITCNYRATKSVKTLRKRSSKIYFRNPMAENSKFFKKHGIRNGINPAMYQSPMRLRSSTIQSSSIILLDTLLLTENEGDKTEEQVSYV
Substance-P receptor (Homo sapiens), sequence (P25103 whole entry): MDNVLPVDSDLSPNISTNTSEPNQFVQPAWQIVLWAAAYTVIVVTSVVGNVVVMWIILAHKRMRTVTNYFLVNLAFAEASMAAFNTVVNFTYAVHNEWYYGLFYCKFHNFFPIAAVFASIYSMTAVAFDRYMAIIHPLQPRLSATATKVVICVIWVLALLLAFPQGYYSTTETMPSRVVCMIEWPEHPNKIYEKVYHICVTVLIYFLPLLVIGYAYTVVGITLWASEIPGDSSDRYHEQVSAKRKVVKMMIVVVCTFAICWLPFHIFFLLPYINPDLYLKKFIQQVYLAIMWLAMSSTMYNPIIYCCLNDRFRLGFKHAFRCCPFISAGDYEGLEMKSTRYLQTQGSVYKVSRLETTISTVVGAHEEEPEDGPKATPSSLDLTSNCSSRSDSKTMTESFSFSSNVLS

Activity [1] [%] | IC50 (Cytochrome P450 3A4) [µM] | Activity [2] [%] | Papp A→B at 2 h, 2 µM [3] [×10⁻⁶ cm/s] | Activity [4] [%] | Activity [5] [%] | Cmax/dose [6] [kg/L] | Activity [7] [%] | IC50 (Cytochrome P450 1A2) [µM] | Activity [8] [%] | Activity [9] [%] | Activity [11] [%] | IC50 [12] [µM] | IC50 (Cytochrome P450 2C9) [µM] | Tmax [14] [h] | IC50 (Cytochrome P450 2D6) [µM] | Vd [16] [L/kg] | Structure (SMILES) | Activity [10] | Activity (Rattus norvegicus [13]) [pmol/L] | Activity (Rattus norvegicus [15]) | other results
< 70 | > 20 | < 70 | 8.9 | < 70 | < 70 | 0.28 | < 70 | > 20 | < 70 | < 70 | < 70 | 0.185 | 9.9 | 8 | > 20 | 16 | O=C(Nc1cnc(Oc2ccc(F)cc2)nc1)N1CCc2ncccc2[C@@H]1c1ccc(F)cc1 [BAY-899] | Non-Toxic | 54 | Active | Activity [17]: < 70%; Activity [18]: Non-Toxic; clearance [19]: 6.83 mL/min/kg; Activity [20]: < 70%; solubility at 24 h [21]: 39 µg/mL (≈ 84.9 µM); Activity [22]: < 70%; IC50 [23]: 10.6 µM; Activity [24]: < 70%; Activity [25]: < 70%; Activity [26]: < 70%; Fh at 1 µM [27]: 68%; AUC/dose [28]: 2.7 kg·h/L; half-life [29]: 33 h
< 70 | > 20 | < 70 | 1.5 | < 70 | < 70 | 0.97 | < 70 | > 20 | < 70 | < 70 | < 70 | 0.096 | 4.4 | 24 | > 20 | 1.8 | O=C(Nc1ccc(Oc2ccc(F)cc2)cc1)N1CCc2ncccc2[C@@H]1c1ccc(Cl)cc1 | Non-Toxic | 57 | Active | Activity [17]: < 70%; Activity [18]: Non-Toxic; clearance [19]: 1.83 mL/min/kg; Activity [20]: < 70%; solubility at 24 h [21]: 3.5 µg/mL (≈ 7.38 µM); Activity [22]: < 70%; IC50 [23]: 3 µM; Activity [24]: < 70%; Activity [25]: < 70%; Activity [26]: < 70%; Fh at 1 µM [27]: 74%; AUC/dose [28]: 7.8 kg·h/L; half-life [29]: 12 h
